Target: T1, GST-RagD (Homo sapiens, UniProt Q9NQL2)
T1 construct: gene RRAGD; GST fusion from pET24d(+) in E. coli Rosetta (DE3), glutathione Sepharose; RagD alone without RagA/B; GST tag kept
Test: UV crosslinking of alpha-32P-GTP, SDS-PAGE, autoradiography
Type: binding
Settings: labelled compound; 1 nM alpha-32P-GTP; 31.25 nM to 2 uM protein; 2 mM MgCl2; 50 mM HEPES pH 7.5; 100 mM potassium acetate; 4 h at 4 C

T1 sequence (Q9NQL2 whole entry, the tested form may be a part): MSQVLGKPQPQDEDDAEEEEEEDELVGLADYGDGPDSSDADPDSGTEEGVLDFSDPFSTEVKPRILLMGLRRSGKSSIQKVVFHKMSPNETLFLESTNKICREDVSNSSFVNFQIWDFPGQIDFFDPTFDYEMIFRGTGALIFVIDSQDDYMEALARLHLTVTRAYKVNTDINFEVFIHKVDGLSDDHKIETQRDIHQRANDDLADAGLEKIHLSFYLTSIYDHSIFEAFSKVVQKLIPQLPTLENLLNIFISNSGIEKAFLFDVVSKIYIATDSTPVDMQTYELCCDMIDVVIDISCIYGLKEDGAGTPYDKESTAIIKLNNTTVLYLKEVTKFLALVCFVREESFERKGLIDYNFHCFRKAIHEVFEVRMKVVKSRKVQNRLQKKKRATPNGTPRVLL

Structure (SMILES): Nc1nc2c(ncn2[C@@H]2O[C@H](COP(=O)(O)OP(=O)(O)OP(=O)(O)O)[C@@H](O)[C@H]2O)c(=O)[nH]1 [GTP]
- UV crosslinking of alpha-32P-GTP, SDS-PAGE, autoradiography: WT RagD bound GTP in a concentration-dependent manner

From article PMC10185561, “RagD auto-activating mutations impair MiT/TFE activity in kidney tubulopathy and cardiomyopathy syndrome” (Nature Communications, 2023)
